Laboratory results as given in patent publication US20240122879A1, “COMPOSITIONS AND METHODS FOR TREATING OCULAR CHEMICAL BURNS” (OHIO STATE INNOVATION FOUNDATION, priority 2022, published 2024).
“Also recorded” adds a separate entry of the source.

What was measured:
[1] = test system: injured corneas; assay: Alkali induced corneal injury: corneal neovascularization, CD31 staining of corneal flat mount; assay type: in vivo, mice; details: disulfiram 50 mg/kg i.p. daily, FIG. 7G, 7H
Protocol: All animal care and usage followed NIH guidelines and were in accordance with the ARVO Statement for the Use of Animals in Ophthalmic and Vision Research. Rodent studies received IACUC approval by The Ohio State University. For all corneal wound healing models, injury was induced under anesthesia, all animals received topical antibiotics, and topical and systemic analgesics were provided for at least 72 h. To induce corneal injury, a 1.5 mm filter paper soaked in 1N NaOH was applied to the axial cornea for 30 seconds. The filter paper was then removed and the cornea rinsed with PBS for two minutes. After the cornea was thoroughly rinsed, fluorescein stain was applied to the cornea to verify corneal ulceration. For disulfiram treatment of mice, disulfiram was dissolved in sesame oil (12.5 mg/ml). Mice were injected 16 hours before injury through intraperitoneal injection (50 mg/kg); injection continued daily for the duration of the experiment. For Gr-1 antibody treatment, mice were injected 16 hours and immediately before injury through intraperitoneal injection (100 μg/mouse). Dissected eye from mice were fixed in 4% PFA for 24 to 48 hours at 4° C. […]

[2] = test system: Caspase-3; assay: Western blot of Caspase-3 cleavage in isolated primary mouse neutrophils; assay type: cell-based; details: primary neutrophils from mouse bone marrow; FIG. 12
Description: (§1) To further confirm neutrophils undergo pyrotposis, primary neutrophils were isolated and purified from mouse bone marrow. Isolated neutrophils underwent pyroptosis quickly after isolation followed by activation of apoptosis, as evidenced by cleaved caspase-3 (FIG. 11).
(§2) Bone marrow samples were obtained as previously described. Briefly, lower limbs were collected from euthanized mice. All attached soft tissue was removed to fully expose the femurs and tibias. An 18G needle was inserted into hollow of the bone and pulse flush buffer (2% FBS in PBS) used to flush marrow into a 15 ml sterile centrifuge tube. The solution was then filtered with a 70-100 μm filter. The solution was centrifuged at […], and the bone marrow cells were resuspended in red blood cell lysis buffer for 5 minutes.
(§3) Separation of neutrophils using density gradient centrifugation was performed as previously described (Swamydas, et al. J Vis Exp. 2013 (77):e50586). The bone marrow cells were resuspended in 1 ml of ice-cold sterile PBS. Using a 15 mL conical tube, 3 ml of Histopaque 1119 was first added followed by an overlay of 3 mL of Histopaque 1077. The bone marrow cell suspension was then overlaid on the Histopaque 1077. The samples were centrifuged for 30 min at 2,000 rpm at 25° C. Neutrophils were then at the interface of the Histopaque 1119 and Histopaque 1077 layers. […]

[3] = test system: GsdmD; assay: Western blot of GsdmD cleavage in isolated primary mouse neutrophils; assay type: cell-based; details: primary neutrophils from mouse bone marrow; FIG. 12
Description: as §1, §2, §3

[4] = test system: IL-1β, caspase 1 and GsdmD; details: discussion statement following citation of Hu et al.; cited from earlier work
[5] = test system: GsdmD; assay: Western blot of corneal samples after alkali injury: GsdmD cleavage / pyroptosis; assay type: in vivo, mice; details: FIG. 2C
Description: (§4) While neutrophil pyroptosis plays a detrimental role during corneal wound healing, the initial neutrophil infiltration is critical for removing dead corneal cells and debris, which is part of the healing process. Thus, complete depletion of neutrophil may not be the ideal option to promote normal corneal healing. Disulfiram is an FDA approved drug, which has been recently been identified as a pyroptosis inhibitor (Hu, et al. Nat Immunol. 2020 21(7):736-745). Thus, tested was whether application of disulfiram could be an effective means to promote corneal wound healing. […] To confirm treatment of disulfiram could inhibit post-injury pyroptosis, Western blot analysis was performed on corneal samples before and after injury.
(§5) All animal care and usage followed NIH guidelines and were in accordance with the ARVO Statement for the Use of Animals in Ophthalmic and Vision Research. Rodent studies received IACUC approval by The Ohio State University. For all corneal wound healing models, injury was induced under anesthesia, all animals received topical antibiotics, and topical and systemic analgesics were provided for at least 72 h. To induce corneal injury, a 1.5 mm filter paper soaked in 1N NaOH was applied to the axial cornea for 30 seconds. The filter paper was then removed and the cornea rinsed with PBS for two minutes. […]

[6] = test system: injured corneas; assay: Alkali induced corneal injury: re-epithelialization / wound healing (fluorescein); assay type: in vivo, mice; details: disulfiram 50 mg/kg i.p. daily from 16 h before injury, antibodies before wounding, FIG. 7C-7F
Protocol: All animal care and usage followed NIH guidelines and were in accordance with the ARVO Statement for the Use of Animals in Ophthalmic and Vision Research. Rodent studies received IACUC approval by The Ohio State University. For all corneal wound healing models, injury was induced under anesthesia, all animals received topical antibiotics, and topical and systemic analgesics were provided for at least 72 h. To induce corneal injury, a 1.5 mm filter paper soaked in 1N NaOH was applied to the axial cornea for 30 seconds. The filter paper was then removed and the cornea rinsed with PBS for two minutes. After the cornea was thoroughly rinsed, fluorescein stain was applied to the cornea to verify corneal ulceration. For disulfiram treatment of mice, disulfiram was dissolved in sesame oil (12.5 mg/ml). Mice were injected 16 hours before injury through intraperitoneal injection (50 mg/kg); injection continued daily for the duration of the experiment. For Gr-1 antibody treatment, mice were injected 16 hours and immediately before injury through intraperitoneal injection (100 μg/mouse).

[7] = test system: Caspase-1; assay: Western blot: Caspase-1 cleavage after disulfiram treatment; assay type: in vivo, mice; details: FIG. 17
Description: as §4, §5

[8] = test system: mCECs; assay: Scratch wound assay of mCECs cultured with dissected corneas from treated mice; assay type: cell-based, mouse; details: FIG. 3A, 3B
Protocol: The potential function of neutrophil pyroptosis in corneal wound healing was next tested. Mouse corneas were first dissected with or without injury from WT, GsdmD^−/−, Gr-1 treated, and disulfiram treated mice, and cultured the dissected corneas with mCECs. A scratch wound was then created in the mCEC.
For disulfiram treatment of mice, disulfiram was dissolved in sesame oil (12.5 mg/ml). Mice were injected 16 hours before injury through intraperitoneal injection (50 mg/kg); injection continued daily for the duration of the experiment. For Gr-1 antibody treatment, mice were injected 16 hours and immediately before injury through intraperitoneal injection (100 μg/mouse).
To induce cellular migration, an in vitro scratch test was performed using mCECs. Cells were treated with dissected corneas or cytokines when they reached confluence, were subsequently scratched with a micropipette tip, and incubated for up to 12 hrs. Images were taken at 0, 3, 6, and 9 hours after the initial scratch. Images of wound closure were quantified by using ImageJ software.

SMILES: CCN(CC)C(=S)SSC(=S)N(CC)CC [Disulfiram, Tetraethylthiuram disulfide]
- corneal neovascularization (CNV), CD31 staining [1]: significantly reduced; also recorded: significantly reduce neovascularization
- Caspase-3 cleavage in isolated neutrophils [2]: not cleavage of Caspase-3
- GsdmD cleavage in isolated neutrophils [3]: inhibits cleavage of GsdmD; also recorded: significantly inhibit
- cleavage of caspase 1 and GsdmD [4]: inhibit the cleavage of caspase 1 and GsdmD
- release of mature IL-1β [4]: inhibit the release of mature IL-1β
- cleavage of GsdmD (GsdmD-N expression) ([5]; FIG. 17 (disulfiram), 24 hours after injury (Gr-1 antibody)): suppress cleavage
- activation of pyroptosis after corneal injury ([5]; corneal samples after alkali injury, FIG. 17): effectively inhibited pyroptosis
- corneal wound healing / re-epithelialization [6]: dramatically accelerated wound healing; also recorded: improved healing outcomes; also recorded: promote the re-epithelialization
- cleavage of Caspase-1 [7]: suppress cleavage
- inhibitory effects of injured corneas on mCECs migration (scratch wound closure) [8]: greatly reduced
